This is an account of results in patent EP4778922A1, “BICYCLIC COMPOUND, AND PREPARATION METHOD THEREFOR AND PHARMACEUTICAL USE THEREOF” (Shanghai Jeyou Pharmaceutical Co., Ltd., priority 2023, dated 2025).

In general, pIC50 refers to the negative decadic logarithm of the IC50, by convention in mol/L.

pIC50: −log10 of the molar value.

For the first test, the system named is 22RV1 cells. Briefly: Cell proliferation inhibition assay in 22RV1 cells (CellTiter-Glo, 7 days). It counts as cell-based, human. The settings on record: Homo sapiens, 22Rv1, 168 h. As for the experimental part: • 1. The human prostate cancer cell lines 22RV1 and LNCaP were purchased from ATCC. […] The cell concentration was adjusted to an appropriate concentration (determined based on the results of cell density optimization experiments), and the cells were seeded into a 96-well plate. A 100 µL cell suspension was added, resulting in 3000 cells per well. […] On the second day, for 22Rv1 cells, test compounds at different concentrations were added, and the cells were incubated at 37°C in a 5% CO2 incubator for 7 days; for LNCaP cells, test compounds at different concentrations were added first, and after 1 hour of treatment, 0.2 nM DHT was added. The cells were then incubated at 37°C in a 5% CO2 incubator for 7 days. • 4. After the incubation period, a volume of CellTiter-Glo detection reagent equal to the volume of the culture medium was added to each well. The plate was shaken and mixed thoroughly for 5 minutes, then incubated at room temperature for 10 minutes. Readings were taken using a PerkinElmer EnVision microplate reader. • 5.
The IC50 curve was fitted and the IC50 value was calculated using the software GraphPad Prism 8 with the calculation formula XY-analysis/Nonlinear regression (curve fit)/Dose response-Inhibition/log (inhibitor) vs. response-Variable slope (four parameters).
For orientation: ATP-based viability assays read luminescence as a measure of living cells.
For `CC(C)(c1ccc(-c2cnc(OCc3ccnc(N4CC(S(C)(=N)=O)C4)n3)cn2)cc1)c1cc(Cl)c(OCCCl)c(C#N)c1` (racemic) [Compound 323], the pIC50 is 6.24.
Same read-out and setting: the figure for `CC(C)(c1ccc(-c2cnc(OCc3ccnc(N4CC(S(=N)(=O)C5CC5)C4)n3)cn2)cc1)c1cc(Cl)c(OCCCl)c(C#N)c1` (racemic) [Compound 350] is 6.34.
Molecule `CC(C)(c1ccc(-c2ccc(OCc3ccnc(N4CC(OCCS(C)(=O)=O)C4)n3)cc2)cc1)c1cc(Cl)c(OCCCl)c(C#N)c1` [Compound 160] gave a pIC50 of 6.64.
With `CC(C)(c1ccc(-c2ccc(OCc3ccnc(N4CC5(C4)CS(=O)(=O)C5)n3)cc2)cc1)c1cc(Cl)c(OCCCl)c(C#N)c1` [Compound 24], the pIC50 is 5.99.

Still in this test, the particulars now being: Homo sapiens, 168 h.
In turn, `CC(C)(c1ccc(-c2ccc(OCc3ccnc(N=S4(=O)CCOCC4)n3)c(F)n2)cc1)c1cc(Cl)c(OCCCl)c(C#N)c1` [Compound 154] gave a pIC50 of 6.59.
On the same count and under the same terms, the figure for `CC(C)(c1ccc(-c2ccc(OC3CCN(c4ccnc(N5CC6(C5)CS(=O)(=O)C6)n4)CC3)cc2)cc1)c1cc(Cl)c(OCCCl)c(C#N)c1` [Compound 78] is 6.15.
Same read-out and setting: the figure for `CC(C)(c1ccc(-c2ccc(OCc3ccnc(N4CC5(COC5)C4)n3)cc2)cc1)c1cnc2c(cnn2CCCl)c1` [Compound 45] is 6.00.
Still for that read-out and setting: under `Cn1ncc2c1CCS(=O)(=Nc1nccc(COc3ccc(-c4ccc(C(C)(C)c5cc(Cl)c(OCCCl)c(C#N)c5)cc4)cc3)n1)C2` (stereo not drawn) [Compound 281] stands 6.30.
The molecule `CC(C)(c1ccc(-c2ccc(OCC3CCC(CN4CC5(C4)CS(=N)(=O)C5)CC3)cc2)cc1)c1cc(Cl)c(OCCCl)c(C#N)c1` (stereo not drawn) [Compound 318] had a pIC50 of 6.14.
With `CC(C)(c1ccc(-c2ccc(OCc3ccnc(N=S4(=O)CCN(C5COC5)CC4)n3)cc2)cc1)c1cc(Cl)c(OCCCl)c(C#N)c1` [Compound 223], the pIC50 is 6.29.
Still for that read-out and setting: under `CC(C)(c1ccc(-c2cnc(OCc3ccnc(N4CC5(COC5)C4)n3)nc2)cc1)c1cc(Cl)c(OCCCl)c(C#N)c1` [Compound 35] stands 6.08; under `CC(C)(c1ccc(-c2ccc(OCc3ccnc(N4CC5(C4)CC(F)(F)C5)n3)cc2)cc1)c1cc(Cl)c(OCCCl)c(C#N)c1` [Compound 198], 6.28; under `CC(C)(c1ccc(-c2ccc(OCc3ccnc(N=S4(=O)CCN(CC(F)(F)F)CC4)n3)nc2)cc1)c1cc(Cl)c(OCCCl)c(C#N)c1` [Compound 261], 6.08.
`CC(C)(c1ccc(-c2ccc(OCc3ccnc(N=S4(=O)CCN(CC(F)(F)F)CC4)n3)cn2)cc1)c1cc(Cl)c(OCCCl)c(C#N)c1` [Compound 139] had a pIC50 of 6.19.
The same measure, in the same setting: under `CC(C)(c1ccc(-c2ccc(OCC3CN(C(=O)C4CC5(C4)CS(=O)(=O)C5)C3)cc2)cc1)c1cc(Cl)c(OCCCl)c(C#N)c1` [Compound 310] stands 6.03; under `CC(C)(c1ccc(-c2ccc(OCc3ccnc(N4CCCS4(=O)=O)n3)cc2)cc1)c1cc(Cl)c(OCCCl)c(C#N)c1` [Compound 265], 6.27; under `C[C@H](O)CN1CCS(=O)(=Nc2nccc(COc3ccc(-c4ccc(C(C)(C)c5cc(Cl)c(OCCCl)c(C#N)c5)cc4)cc3)n2)CC1` [Compound 316], 6.17.
Molecule `CC(C)(c1ccc(-c2ccc(OCC3CCOCC3)nc2)cc1)c1cc(Cl)c(OCCCl)c(C#N)c1` [Compound 184] gave a pIC50 of 6.04.
With `CC(C)(c1ccc(-c2ccc(OCc3ccnc(N4CCN(S(C)(=O)=O)CC4)n3)cc2)cc1)c1cc(Cl)c(OCCCl)c(C#N)c1` [Compound 200], the pIC50 was 6.24.
The same measure, in the same setting: the figure for `Cc1cc(OCc2ccc(-c3cnc(P(C)(C)=O)nc3)cc2)ccc1-c1ccc(C(C)(C)c2cc(Cl)c(OCCCl)c(C#N)c2)cc1` [Compound 304] is 6.09.
On to `CC(C)(c1ccc(-c2ccc(OCc3ccnc(P(C)(C)=O)n3)cc2)cc1)c1cc(F)c2c(cnn2CCCl)c1` [Compound 280], for which the pIC50 was 5.90.
Molecule `CC(c1ccccc1)(c1ccc(-c2ccc(OCc3ccnc(P(C)(C)=O)n3)cc2)cc1)c1cc(Cl)c(OCCCl)c(C#N)c1` (stereo not drawn) [Compound 190] showed a pIC50 of 6.20.
The same measure, in the same setting: under `CC(C)(c1ccc(-c2ccc(OCc3ccnc(N=S4(=O)CCN(CC(O)C(F)(F)F)CC4)n3)cc2)cc1)c1cc(Cl)c(OCCCl)c(C#N)c1` (stereo not drawn) [Compound 252] stands 6.14.
Same read-out and setting: under `CC(C)(c1ccc(-c2cccc(OCc3ccnc(S(C)(=O)=O)n3)c2)cc1)c1cc(Cl)c(OCCCl)c(C#N)c1` [Compound 4] stands 5.86.
Still for that read-out and setting: the figure for `CC(C)(c1ccc(-c2ccc(Oc3ccc(-c4ccnc(P(C)(C)=O)n4)cc3)cc2)cc1)c1cc(Cl)c(OCCCl)c(C#N)c1` [Compound 267] is 6.77; for `CC(C)(c1ccc(-c2ccc(OCC3CCC(CN4CC5(C4)CS(=O)(=O)C5)CC3)cc2)cc1)c1cc(Cl)c(OCCCl)c(C#N)c1` (stereo not drawn) [Compound 309] it is 6.34.
The molecule `CC(C)(c1ccc(-c2ccc(OCC3CCOCC3)cn2)cc1)c1cc(Cl)c(OCCCl)c(C#N)c1` [Compound 169] showed a pIC50 of 6.44.
Still for that read-out and setting: the figure for `CC(C)(c1ccc(-c2ccc(OCc3ccnc(P(C)(C)=O)n3)cn2)cc1)c1cc(Cl)c(OCCCl)c(C#N)c1` [Compound 15] is 5.87; for `CC(C)(c1ccc(-c2ccc(OCc3ccnc(N=S4(=O)CCN(CC(F)(F)F)CC4)n3)cc2)cc1)c1cc(Cl)c(OCCCl)c(C#N)c1` [Compound 217] it is 6.37; for `CC(C)(c1ccc(-c2ccc(OC3CCN(c4ccnc(N5CC6(COC6)C5)n4)CC3)cc2)cc1)c1cc(Cl)c(OCCCl)c(C#N)c1` [Compound 77] it is 5.83.
Still for that read-out and setting: under `CC(C)(c1ccc(-c2ccc(OCc3ccnc(N=S4(=O)CCOCC4)n3)cc2)cc1)c1cc(Cl)c(OCCCl)c(C#N)c1` [Compound 43] stands 6.52; under `CC(C)(c1ccc(-c2ccc(OCc3ccnc(N4CC5(C4)CN(S(C)(=O)=O)C5)n3)cc2)cc1)c1cc(Cl)c(OCCCl)c(C#N)c1` [Compound 105], 6.52; under `CC(C)(c1ccc(-c2ccc(OCc3ccnc(N=S4(=O)CCN(C(=O)C5CC5)CC4)n3)cc2)cc1)c1cc(Cl)c(OCCCl)c(C#N)c1` [Compound 219], 6.68.
Consider `CC(C)(c1ccc(-c2ccc(OCc3ccnc(N4CCC(S(C)(=O)=O)C4)n3)cc2)cc1)c1cc(Cl)c(OCCCl)c(C#N)c1` (stereo not drawn) [Compound 266], for which the pIC50 was 6.11.
Take `CC(C)(c1ccc(-c2ccc(OCC3CCOCC3)cc2)cc1)c1cc(Cl)c(OCCCl)c(C#N)c1` [Compound 74]: the negative-log IC50 (pIC50) was 6.54.
`CC(C)(c1ccc(-c2ccc(OCc3ccnc(N=S4(=O)CCN(C5CC5)CC4)n3)cn2)cc1)c1cc(Cl)c(OCCCl)c(C#N)c1` [Compound 250] showed a pIC50 of 6.07.
In the case of `CC(C)(c1ccc(-c2ccc(OCc3ccc(-c4cnc(P(C)(C)=O)nc4)cc3)nc2)cc1)c1cc(Cl)c(OCCCl)c(C#N)c1` [Compound 277], the pIC50 is 5.88.
The same measure, in the same setting: the figure for `CC(C)(c1ccc(-c2cc(F)c(OCc3ccnc(N=S4(=O)CCOCC4)n3)cn2)cc1)c1cc(Cl)c(OCCCl)c(C#N)c1` [Compound 153] is 6.11.
Still for that read-out and setting: the figure for `CC(C)(c1ccc(-c2ccc(OCc3ccnc(N=S4(=O)CCCC4)n3)nc2)cc1)c1cc(Cl)c(OCCCl)c(C#N)c1` [Compound 18] is 5.84.
Consider `CC(C)(c1ccc(-c2ccc(OCC34CC(c5cnc(N6CC(S(C)(=O)=O)C6)nc5)(C3)C4)cc2)cc1)c1cc(Cl)c(OCCCl)c(C#N)c1` [Compound 321], for which the pIC50 was 5.92.
Same read-out and setting: the figure for `CC(C)(c1ccc(-c2ccc(OCC3CC4(C3)CN(c3ccnc(P(C)(C)=O)n3)C4)cc2)cc1)c1cc(Cl)c(OCCCl)c(C#N)c1` [Compound 393] is 6.06; for `CC(C)(c1ccc(-c2cnc(OCc3ccc(-c4cnc(P(C)(C)=O)nc4)cc3)nc2)cc1)c1cc(Cl)c(OCCCl)c(C#N)c1` [Compound 274] it is 6.89.
On the same count and under the same terms, the figure for `CC(C)(c1ccc(-c2ccc(OCC3CC(CN4CC5(CCS(=N)(=O)CC5)C4)C3)cc2)cc1)c1cc(Cl)c(OCCCl)c(C#N)c1` (stereo not drawn) [Compound 311] is 6.27.
Same read-out and setting: under `CC(C)(c1ccc(-c2ccc(OCc3ccnc(N4CC5(C4)CS(=O)(=O)C5)n3)nc2)cc1)c1cc(Cl)c(OCCCl)c(C#N)c1` [Compound 208] stands 6.00.
`CC(C)(c1ccc(-c2ccc(OCC3CC(CN4CC5(COC5)C4)C3)cc2)cc1)c1cc(Cl)c(OCCCl)c(C#N)c1` (stereo not drawn) [Compound 196] gave a pIC50 of 6.07.
The same measure, in the same setting: under `CC(C)(c1ccc(-c2ccc(OCc3ccnc(N=S4(=O)CCN(S(C)(=O)=O)CC4)n3)cc2)cc1)c1cc(Cl)c(OCCCl)c(C#N)c1` [Compound 220] stands 6.77; under `C[S+]([O-])c1nccc(COc2ccc(-c3ccc(C(C)(C)c4cc(Cl)c(OCCCl)c(C#N)c4)cc3)cc2)n1` (stereo not drawn) [Compound 81], 6.07.
Same read-out and setting: under `CC(C)(c1ccc(-c2ccc(OC3CC4CCC(C3)N4c3ccnc(P(C)(C)=O)n3)nc2)cc1)c1cc(Cl)c(OCCCl)c(C#N)c1` (stereo not drawn) [Compound 140] stands 6.28; under `CC(C)(c1ccc(-c2ccc(OCC3CC4(C3)CS(=O)(=O)C4)cc2)cc1)c1cc(Cl)c(OCCCl)c(C#N)c1` [Compound 106], 6.72; under `CC(C)(c1ccc(-c2ccc(/C=C/c3ccnc(N=S4(=O)CCOCC4)n3)cc2)cc1)c1cc(Cl)c(OCCCl)c(C#N)c1` [Compound 294], 6.09.
Still for that read-out and setting: under `CC(C)(c1ccc(-c2ccc(OCc3ccnc(N4CC5(CC(S(C)(=O)=O)C5)C4)n3)cc2)cc1)c1cc(Cl)c(OCCCl)c(C#N)c1` [Compound 121] stands 6.72.
